For one test, the system named is Myzus persicae. The test is described as follows: Myzus persicae test (Example C), sprayed cabbage leaves. Format: in vivo. The settings on record: alone; for pest or weed control at 0.16 g/ha / pest or weed control at 0.8 g/ha / pest or weed control at 0.032 g/ha / pest or weed control at 4 g/ha: Myzus persicae, 144 h, read-out: Kill in % after 6d; for pest or weed control at 0.16 g/ha / pest or weed control at 0.8 g/ha / pest or weed control at 0.032 g/ha / pest or weed control at 4 g/ha / Kill in % after 6d: after 6 d.

The next test concerns Phaedon cochleariae. The test is described as follows: Phaedon cochleariae larvae test (Example E), sprayed cabbage leaves.
For a further test, the system named is Tetranychus urticae. Description: Tetranychus urticae test (OP-resistant/spray treatment) (Example G), bean leaf disks. Format: in vivo. The settings on record: for pest or weed control at 20 g/ha / pest or weed control at 4 g/ha / pest or weed control at 0.8 g/ha: Tetranychus urticae, foliar, 144 h, read-out: Kill in % after 6 d; for pest or weed control at 20 g/ha / pest or weed control at 4 g/ha / pest or weed control at 0.8 g/ha / Kill in % after 6d: active compound alone, after 6 d; for Kill in % after 2d: alone. As to the method:
Tetranychus urticae Test (OP-Resistant/Spray Treatment)
After the desired period of time, the activity in % is determined.

Where [1] appears, read: Phaedon cochleariae, in Brassica oleracea, 144 h, read-out: Kill in % after 6d.

With `CNC(=O)c1cc(C#N)cc(C)c1NC(=O)c1cc(Br)nn1-c1ncccc1Cl` [Cyazypyr (57), Cyazypyr], the “Kill in % after 1d” value in the test on Myzus persicae (4 g/ha) came to 5%. In the test on Phaedon cochleariae (setting [1]), the pest or weed control at 0.16 g/ha is 0%. For the molecule `CC(c1ccc(C(F)(F)F)nc1)S(C)(=O)=NC#N` (stereo not drawn) [II-29-29], the pest or weed control at 20 g/ha in the test with Tetranychus urticae (20 g/ha) was 0%. For `CNC(=O)c1cc(Cl)cc(C)c1NC(=O)c1cc(Br)nn1-c1ncccc1Cl` [Rynaxapyr (56), chlorantraniliprole], the pest or weed control at 0.16 g/ha in the test on Myzus persicae (0.16 g/ha) worked out at 0%. Also, in the test on Tetranychus urticae (4 g/ha), the pest or weed control at 4 g/ha was found to be 0%.

Turning to `C/C(=N\C#N)N(C)Cc1ccc(Cl)nc1` [acetamiprid (25), acetamiprid], in the test with Myzus persicae (0.16 g/ha), the pest or weed control at 0.16 g/ha worked out at 0%. For the same molecule, the pest or weed control at 0.8 g/ha in the test with Tetranychus urticae (0.8 g/ha) and with Phaedon cochleariae (setting [1]) was 0% throughout.

For `CNC(=O)O/N=C/C(C)(C)SC` [aldicarb (108), aldicarb], in the test with Myzus persicae (4 g/ha), the “Kill in % after 1d” value came to 30%. For the molecule `Cc1ccc(/N=C/N(C)/C=N/c2ccc(C)cc2C)c(C)c1` [amitraz (86), amitraz], the pest or weed control at 0.8 g/ha in the test with Myzus persicae (0.8 g/ha) amounted to 0%. Also, the “Kill in % after 2d” value with Tetranychus urticae (4 g/ha) turned out to be 0%. The pest or weed control at 100 g/ha in the test with Phaedon cochleariae (setting [1]) was 0%. Take `CC1(C)C(C=C(Cl)Cl)C1C(=O)OC(C#N)c1ccc(F)c(Oc2ccccc2)c1` (stereo not drawn) [beta-cyfluthrin (3), betacyfluthrin]: in the test with Myzus persicae (0.16 g/ha), the pest or weed control at 0.16 g/ha is 0%. The pest or weed control at 0.8 g/ha in the test with Tetranychus urticae (0.8 g/ha) came to 0%; in the test with Phaedon cochleariae (setting [1]), 17%. For `CCOCn1c(-c2ccc(Cl)cc2)c(C#N)c(Br)c1C(F)(F)F` [chlorfenapyr (92), chlorfenapyr], the pest or weed control at 0.8 g/ha in the test on Myzus persicae (0.8 g/ha) was found to be 0%. Besides, the pest or weed control at 4 g/ha in the test with Tetranychus urticae (4 g/ha) worked out at 70%. In the case of `CN/C(=N\[N+](=O)[O-])NCc1cnc(Cl)s1` [clothianidin (30), clothianidin], the pest or weed control at 0.032 g/ha in the test with Myzus persicae turned out to be 0%. For the same molecule, the pest or weed control at 0.8 g/ha in the test on Tetranychus urticae (0.8 g/ha) worked out at 0%.

For the molecule `CN(Cc1ccc(Cl)nc1)C1=CC(=O)OC1` [compound (100)], the pest or weed control at 0.16 g/ha with Myzus persicae (0.16 g/ha) was found to be 0%. Turning to `O=C1C=C(N(Cc2ccc(Cl)nc2)CC(F)F)CO1` [compound (101)], the pest or weed control at 0.8 g/ha in the test with Myzus persicae (0.8 g/ha) came out at 50%. For the same molecule, in the test with Tetranychus urticae (20 g/ha), the pest or weed control at 20 g/ha was found to be 0%. In the case of `Cc1cc(C)c(-n2cnc(C(F)(F)F)n2)cc1SOCC(F)(F)F` [compound (106)], the pest or weed control at 4 g/ha in the test on Myzus persicae (4 g/ha) was determined as 0%. In the case of `Cc1nn(C)c(/C(OC(=O)C(C)(C)C)=C(\C#N)c2ccc(C(C)(C)C)cc2)c1C` [cyenopyrafen (71), (1E)-2-cyano-2-[4-(1,1-dimethylethyl)phenyl]-1-(1,3,4-trimethyl-1H-pyrazol-5-yl)ethenyl 2,2-dimethylpropanoate], the pest or weed control at 0.8 g/ha in the test with Myzus persicae (0.8 g/ha) is 0%.

For the molecule `COCCOC(=O)C(C#N)(C(=O)c1ccccc1C(F)(F)F)c1ccc(C(C)(C)C)cc1` (stereo not drawn) [cyflumetofen (72), 2-methoxyethyl alpha-cyano-alpha-[4-(1,1-dimethylethyl)phenyl]-beta-oxo-2-(trifluoromethyl)benzenepropanoate], the figures for the pest or weed control at 4 g/ha with Myzus persicae (4 g/ha) and in the test with Tetranychus urticae (4 g/ha) were 0% and 80%, respectively. With `Nc1nc(N)nc(NC2CC2)n1` [cyromazine (43), cyromazine], the pest or weed control at 0.8 g/ha in the test with Myzus persicae (0.8 g/ha) came out at 0%. The pest or weed control at 20 g/ha in the test on Tetranychus urticae (20 g/ha) amounted to 0%. In addition, in the test on Phaedon cochleariae (setting [1]), the pest or weed control at 100 g/ha worked out at 0%. Take `CC1(C)C(C=C(Br)Br)C1C(=O)OC(C#N)c1cccc(Oc2ccccc2)c1` (stereo not drawn) [deltamethrin (6), deltamethrin]: in the test on Myzus persicae (0.16 g/ha), the “Kill in % after 1d” value amounted to 40%. In addition, the pest or weed control at 0.8 g/ha is 0% in the test on Tetranychus urticae (0.8 g/ha) and 50% in the test with Phaedon cochleariae (setting [1]). Consider `CC(C)c1cc(Oc2ccccc2)cc(C(C)C)c1NC(=S)NC(C)(C)C` [diafenthiuron (76), diafenthiuron], for which the pest or weed control at 0.8 g/ha came to 0% in the test with Myzus persicae (0.8 g/ha) and 30% with Tetranychus urticae (0.8 g/ha). For the same molecule, the pest or weed control at 20 g/ha with Phaedon cochleariae (setting [1]) was 0%. Turning to `CN/C(=N/CC1CCOC1)N[N+](=O)[O-]` (stereo not drawn) [dinotefuran (29)], the “Kill in % after 6d” value in the test with Tetranychus urticae (4 g/ha) stood at 0%. For the molecule `O=S1OCC2C(CO1)C1(Cl)C(Cl)=C(Cl)C2(Cl)C1(Cl)Cl` (stereo not drawn) [endosulfan (49), endosulfan], the pest or weed control at 4 g/ha in the test on Myzus persicae (4 g/ha) turned out to be 0%. Besides, in the test with Tetranychus urticae (100 g/ha), the “Kill in % after 2d” value is on record as 0%. The pest or weed control at 20 g/ha in the test on Phaedon cochleariae (setting [1]) is 33%. Regarding `CC[S+]([O-])c1c(C#N)nn(-c2c(Cl)cc(C(F)(F)F)cc2Cl)c1N` (stereo not drawn) [ethiprole (51)], the “Kill in % after 6d” value with Tetranychus urticae (100 g/ha) is recorded as 0%. On to `Cc1nn(C)c(Oc2ccccc2)c1C=NOCc1ccc(C(=O)OC(C)(C)C)cc1` [fenpyroximate (65), fenpyroximate], for which the pest or weed control at 0.8 g/ha with Myzus persicae (0.8 g/ha) was found to be 0%. Also, the “Kill in % after 2d” value with Tetranychus urticae (0.8 g/ha) came out at 10%. On to `N#Cc1nn(-c2c(Cl)cc(C(F)(F)F)cc2Cl)c(N)c1[S+]([O-])C(F)(F)F` (stereo not drawn) [fipronil (50), fipronil], for which the pest or weed control at 4 g/ha in the test on Myzus persicae (4 g/ha) is 0%. `N#CCNC(=O)c1cnccc1C(F)(F)F` [flonicamid (89), flonicamid]: the “Kill in % after 2d” value in the test with Tetranychus urticae (100 g/ha) came out at 0%. Turning to `O=C(NC(=O)c1c(F)cccc1F)Nc1ccc(Oc2ccc(C(F)(F)F)cc2Cl)cc1F` [flufenoxuron (38), flufenoxuron], the pest or weed control at 20 g/ha with Tetranychus urticae (20 g/ha) worked out at 0%. Also, the pest or weed control at 4 g/ha with Phaedon cochleariae (setting [1]) amounted to 0%. For `O=[N+]([O-])/N=C1\NCCN1Cc1ccc(Cl)nc1` [imidacloprid (24), imidacloprid], the pest or weed control at 0.032 g/ha in the test with Myzus persicae was determined as 0%. For the same molecule, the pest or weed control at 0.8 g/ha with Tetranychus urticae (0.8 g/ha) was 0%. Regarding `CNC(=O)Oc1cc(C)c(SC)c(C)c1` [methiocarb (110), methiocarb], the pest or weed control at 4 g/ha in the test with Phaedon cochleariae (setting [1]) turned out to be 0%. On to `COc1cccc(C(=O)NN(C(=O)c2cc(C)cc(C)c2)C(C)(C)C)c1C` [methoxyfenozide (44), methoxyfenozide], for which the pest or weed control at 0.8 g/ha with Myzus persicae (0.8 g/ha) was 0%. The pest or weed control at 20 g/ha in the test on Tetranychus urticae (20 g/ha) is 0%. With `O=C(NC(=O)c1c(F)cccc1F)Nc1ccc(OC(F)(F)C(F)OC(F)(F)F)c(Cl)c1` (stereo not drawn) [novaluron (37), novaluron], the pest or weed control at 4 g/ha with Phaedon cochleariae (setting [1]) worked out at 83%.

As for `FC(F)(F)c1ccc(OCCCOc2c(Cl)cc(OCC=C(Cl)Cl)cc2Cl)nc1` [pyridalyl (99)], the “Kill in % after 6d” value in the test on Tetranychus urticae (20 g/ha) was found to be 0%. For the molecule `CCC(C)(C)C(=O)OC1=C(c2ccc(Cl)cc2Cl)C(=O)OC12CCCCC2` [spirodiclofen (96), spirodiclofen], in the test on Myzus persicae (0.8 g/ha), the pest or weed control at 0.8 g/ha worked out at 0%. Further, the pest or weed control at 100 g/ha with Phaedon cochleariae (setting [1]) was determined as 0%. With `Cc1cc(C)c(C2=C(OC(=O)CC(C)(C)C)C3(CCCC3)OC2=O)c(C)c1` [spiromesifen (97), spiromesifen], in the test with Myzus persicae (0.8 g/ha), the pest or weed control at 0.8 g/ha came out at 0%. Consider `CCc1nn(C)c(C(=O)NCc2ccc(C(C)(C)C)cc2)c1Cl` [tebufenpyrad (64), tebufenpyrad], for which, in the test with Myzus persicae (0.8 g/ha), the pest or weed control at 0.8 g/ha was 0%. Consider `CN1COCN(Cc2cnc(Cl)s2)/C1=N/[N+](=O)[O-]` [thiamethoxam (26), thiamethoxam], for which, in the test with Myzus persicae, the pest or weed control at 0.032 g/ha is 0%. In the case of abamectin [abamectin (60)], the “Kill in % after 1d” value in the test with Myzus persicae (20 g/ha) is 5%. With carbosulfan [carbosulfan (109)], the “Kill in % after 1d” value in the test on Myzus persicae (4 g/ha) was found to be 0%. As to chlorpyrifos [chlorpyrifos (95)], the “Kill in % after 6d” value with Myzus persicae (0.8 g/ha) and in the test with Tetranychus urticae (20 g/ha) was 0% in each case. On to profenofos [profenofos (114)], for which, in the test with Myzus persicae (0.8 g/ha), the “Kill in % after 1d” value is reported as 0%. Further, in the test on Tetranychus urticae (20 g/ha), the “Kill in % after 6d” value is reported as 0%. Turning to pyridaben [pyridaben (66)], in the test on Myzus persicae (0.8 g/ha), the “Kill in % after 6d” value is listed as 0%. In addition, the “Kill in % after 2d” value with Phaedon cochleariae (20 g/ha, alone, after 2 d) was found to be 33%.

Source of the values: patent US20100311677A1, “Active Ingredient Combinations Having Insecticidal and Acaricidal Properties” (Bayer CropScience AG, priority 2007, published 2010).
